Among the data in BindingDB's records for doi:10.7270/Q2J67FB5 (Nmmlsc, 2007) are IC50 values, retold here.

For orientation: pIC50 means the IC50 on a negative log10 scale, so that one unit is a factor of ten. Low readings indicate a high IC50, high ones a low IC50.

The structures appear in SMILES notation. pIC50: −log10 of the molar value.

The assay addresses T1, fMet-Leu-Phe receptor (Homo sapiens, UniProt P21462).
T1 sequence (P21462 whole entry): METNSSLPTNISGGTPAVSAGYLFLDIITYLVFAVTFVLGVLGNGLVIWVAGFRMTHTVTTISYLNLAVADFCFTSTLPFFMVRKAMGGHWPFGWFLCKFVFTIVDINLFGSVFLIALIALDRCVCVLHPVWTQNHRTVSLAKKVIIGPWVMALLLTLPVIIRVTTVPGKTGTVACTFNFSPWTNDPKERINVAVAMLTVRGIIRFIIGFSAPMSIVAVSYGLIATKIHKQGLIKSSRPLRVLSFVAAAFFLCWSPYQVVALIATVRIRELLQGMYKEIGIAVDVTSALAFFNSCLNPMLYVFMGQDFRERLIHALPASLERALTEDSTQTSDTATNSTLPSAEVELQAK
As to the kind of experiment: FPR ligands, dose response (AID 519).
`CCOc1cccc(C(=O)C2C(=O)C(=O)N(CCOC)C2c2ccc(C)o2)c1` (centres undefined) [(4Z)-4-[(3-ethoxyphenyl)-hydroxymethylidene]-1-(2-methoxyethyl)-5-(5-methyl-2-furanyl)pyrrolidine-2,3-dione] had a pIC50 of 4.87.

The compound `COc1ccc(OC)c(C2C(C(=O)c3cc4ccccc4o3)C(=O)C(=O)N2c2cc(C)on2)c1` (centres undefined) [3-(1-benzofuran-2-carbonyl)-2-(2,5-dimethoxyphenyl)-4-hydroxy-1-(5-methyl-1,2-oxazol-3-yl)-2H-pyrrol-5-one] showed a pIC50 of 4.44.

On to `COc1cccc(C(=O)C2C(=O)C(=O)N(Cc3cccnc3)C2c2ccco2)c1` (centres undefined) [(4Z)-5-(2-furanyl)-4-[hydroxy-(3-methoxyphenyl)methylidene]-1-(3-pyridinylmethyl)pyrrolidine-2,3-dione], for which the pIC50 is less than 4.18.

For `COc1cc(C2C(C(=O)c3ccc(C)o3)C(=O)C(=O)N2Cc2cccnc2)ccc1O` (centres undefined) [2-(3-methoxy-4-oxidanyl-phenyl)-3-(5-methylfuran-2-yl)carbonyl-4-oxidanyl-1-(pyridin-3-ylmethyl)-2H-pyrrol-5-one], the pIC50 was less than 4.18.

For `Cc1ccc(C2C(C(=O)c3ccc(Br)cc3)C(=O)C(=O)N2Cc2ccco2)o1` (centres undefined) [(4Z)-4-[(4-bromophenyl)-hydroxy-methylene]-1-(2-furfuryl)-5-(5-methyl-2-furyl)pyrrolidine-2,3-quinone], the pIC50 is less than 4.18.

Compound `COc1ccc(C(=O)C2C(=O)C(=O)N(Cc3ccco3)C2c2ccc(OC)cc2OC)cc1` (centres undefined) [(4E)-5-(2,4-dimethoxyphenyl)-1-(2-furanylmethyl)-4-[hydroxy-(4-methoxyphenyl)methylidene]pyrrolidine-2,3-dione] had a pIC50 of less than 4.18.

With `O=C1C(=O)N(Cc2ccccc2)C(c2ccncc2)C1C(=O)c1ccco1` (centres undefined) [1-Benzyl-4-(furan-2-carbonyl)-3-hydroxy-5-pyridin-4-yl-1,5-dihydro-pyrrol-2-one], the pIC50 was 4.87.

Regarding `O=C1C(=O)N(Cc2ccccc2)C(c2ccco2)C1C(=O)c1ccco1` (centres undefined) [1-Benzyl-4-(furan-2-carbonyl)-5-furan-2-yl-3-hydroxy-1,5-dihydro-pyrrol-2-one], the pIC50 is 4.91.

In turn, `COCCN1C(=O)C(=O)C(C(=O)c2cccs2)C1c1ccccc1` (centres undefined) [1-(2-methoxyethyl)-4-oxidanyl-2-phenyl-3-thiophen-2-ylcarbonyl-2H-pyrrol-5-one] gave a pIC50 of less than 4.18.
